Reference: ChEMBL document CHEMBL5321275, “Discovery, Optimization, and Evaluation of Novel N-(Benzimidazol-5-yl)-1,3,4-thiadiazol-2-amine Analogues as Potent STAT3 Inhibitors for Cancer Treatment” (J Med Chem, 2023)
Converted amounts (≈) assume the structure as drawn. The source made the active and inactive calls. The calls are words filed in the database; no cut-off is given here.

Key:
DU-145 [1] = assay: Induction of apoptosis in human DU-145 cells assessed as cell apoptotic percentage at 10 uM measured after 48 hrs by annexin V-FITC and PI staining based flow cytometry analysis relative to control; assay type: functional
[2] = Solubility of compound in water incubated for 10 mins; assay type: physicochemical
[3] = molecular target: T1, Signal transducer and activator of transcription 3 (Homo sapiens, UniProt P40763); assay: Inhibition of STAT3 nuclear translocation in human DU-145 cells at 5 uM measured after 24 hrs by immunofluorescence assay; assay type: cell-based
T1 sequence (P40763 whole entry, the tested form may be a part): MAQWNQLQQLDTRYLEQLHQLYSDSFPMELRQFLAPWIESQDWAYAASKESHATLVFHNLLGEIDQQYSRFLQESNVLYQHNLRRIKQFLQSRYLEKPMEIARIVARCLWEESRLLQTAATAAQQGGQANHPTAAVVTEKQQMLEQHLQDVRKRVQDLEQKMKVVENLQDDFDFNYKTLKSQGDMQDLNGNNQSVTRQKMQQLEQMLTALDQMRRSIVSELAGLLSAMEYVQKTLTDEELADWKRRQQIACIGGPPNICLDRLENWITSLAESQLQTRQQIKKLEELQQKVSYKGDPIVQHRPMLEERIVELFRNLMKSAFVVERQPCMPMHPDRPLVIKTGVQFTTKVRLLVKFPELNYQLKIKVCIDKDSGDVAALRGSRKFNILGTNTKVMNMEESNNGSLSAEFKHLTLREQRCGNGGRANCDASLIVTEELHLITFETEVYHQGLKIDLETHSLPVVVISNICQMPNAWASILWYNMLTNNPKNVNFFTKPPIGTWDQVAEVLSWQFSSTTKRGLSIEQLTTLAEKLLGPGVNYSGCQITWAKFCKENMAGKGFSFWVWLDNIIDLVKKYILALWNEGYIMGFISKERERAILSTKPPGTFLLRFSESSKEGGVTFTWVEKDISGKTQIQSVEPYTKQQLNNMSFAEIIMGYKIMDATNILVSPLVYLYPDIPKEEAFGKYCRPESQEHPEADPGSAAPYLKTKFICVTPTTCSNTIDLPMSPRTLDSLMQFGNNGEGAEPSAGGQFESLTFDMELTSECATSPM

[4] = molecular target: T1, Signal transducer and activator of transcription 3; assay: Inhibition of 5-carboxyfluorescein-GY(PO3H2)LPQTV-NH2 peptide probe binding to human STAT3 SH2 domain preincubated for 30 mins followed by probe addition and measured after 1 hr by fluorescence polarization assay
[5] = AUC (0 to t) in ICR mouse at 5 mg/kg, iv measured upto 96 hrs by HPLC-MS/MS analysis; assay type: ADME, organism-based; design: time < 96 hrs, dose 5 mg/kg, route iv; conditions: in vivo
MDA-MB-231 [6] = assay: Induction of apoptosis in human MDA-MB-231 cells assessed as induction of PARP cleavage at upto 10 uM measured after 48 hrs by […]; assay type: functional, cell-based
DU-145 [7] = assay: Induction of cell cycle arrest in human DU-145 cells assessed as accumulation of cells at G0/G1 phase measured after 24 hrs by PI staining based flow cytometry analysis; assay type: functional; conditions: dose <= 10.0 µM
MDA-MB-231 [8] = assay: Induction of apoptosis in human MDA-MB-231 cells assessed as late apoptotic cells at 1 uM measured after 48 hrs by annexin V-FITC and PI staining based flow cytometry analysis (reference value: 3.1%); assay type: functional
DU-145 [9] = assay: Induction of apoptosis in human DU-145 cells assessed as early apoptotic cells at 5 uM measured after 48 hrs by annexin V-FITC and PI staining based flow cytometry analysis (reference value: 2.5%); assay type: functional
[10] = Antiproliferative activity against human PBMC cells assessed as inhibition of cell growth measured after 96 hrs by MTT assay; assay type: functional, cell-based
[11] = Half life in ICR mouse at 5 mg/kg, iv measured upto 96 hrs by HPLC-MS/MS analysis; assay type: ADME, organism-based; conditions: in vivo
[12] = Toxicity in Balb/c mouse assessed as effect on heart at 50 mg/kg by hematoxylin and eosin staining based histopathological analysis; assay type: organism-based; conditions: in vivo
MDA-MB-231 [13] = assay: Induction of apoptosis in human MDA-MB-231 cells assessed as late apoptotic cells at 5 uM measured after 48 hrs by annexin V-FITC and PI staining based flow cytometry analysis (reference value: 3.1%); assay type: functional
HepG2 = assay: Antiproliferative activity against human HepG2 cells assessed as inhibition of cell growth measured after 96 hrs by MTT assay; assay type: functional, cell-based; conditions: HepG2, 96 h
MDA-MB-231 [14] = assay: Induction of apoptosis in human MDA-MB-231 cells assessed as cell apoptotic percentage at 10 uM measured after 48 hrs by annexin V-FITC and PI staining based flow cytometry analysis relative to control; assay type: functional
MDA-MB-231 [15] = assay: Induction of apoptosis in human MDA-MB-231 cells assessed as early apoptotic cells at 1 uM measured after 48 hrs by annexin V-FITC and PI staining based flow cytometry analysis (reference value: 6.7%); assay type: functional
[16] = molecular target: T1, Signal transducer and activator of transcription 3; assay: Inhibition of STAT3 phosphorylation at Tyr705 residue in human DU-145 cells incubated for 24 hrs by Western blot analysis; assay type: cell-based; conditions: dose <= 10.0 µM
[17] = Drug concentration in ICR mouse plasma at 50 mg/kg, po measured after 2 to 8 hrs; assay type: ADME, organism-based; conditions: in vivo, time 2-8 hrs
HCT-116 = assay: Antiproliferative activity against human HCT-116 cells assessed as inhibition of cell growth measured after 96 hrs by MTT assay; assay type: functional, cell-based; conditions: HCT-116, 96 h
[18] = Clearance in ICR mouse at 50 mg/kg, po measured upto 96 hrs by HPLC-MS/MS analysis; assay type: ADME, organism-based; conditions: in vivo

- solubility at 10 min [2]: 1.04 µg/mL (≈ 1.75 µM)
- inhibition [3]: Active
- IC50 [4]: 16 µM
- AUC(0-t) at 96 h [5]: 3430 ng·h/mL
- half-life [11]: 9 h
- IC50 (HepG2): 1.45 µM
- inhibition [16]: Dose-Dependent Effect
- Cp [17]: 771 ng/mL
- IC50 (HCT-116): 2.19 µM
- CL/F [18]: 46.8 mL/min/kg
SMILES: CN1CCN(c2cc3c(cc2Nc2nnc(-c4ccc(C(F)(F)F)cc4)s2)nc(-c2ccc(F)cc2)n3C2CC2)CC1
- Activity (DU-145 [1]): 79.6%
- Activity (MDA-MB-231 [6]): Active
- Activity (DU-145 [7]): Dose-Dependent Effect
- Activity (MDA-MB-231 [8]): 5.1%
- Activity (DU-145 [9]): 6.9%
- IC50 [10]: 16.3 µM
- Activity [12]: Non-Toxic
- Activity (MDA-MB-231 [13]): 10.7%
- Activity (MDA-MB-231 [14]): 79.3%
- Activity (MDA-MB-231 [15]): 5.9%
